The nature of series [1]: pKa of the lipid by TNS fluorescence. Type of series: physicochemical. To be noted: pKa. An outline of the steps: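 Lipid dissolved in ethanol (2 mM stock) and measured with TNS across eight buffers of differing pH, in water at standard temperature and pressure. Normalized fluorescence intensity plotted against pH and points joined by a smooth line to derive pKa, precise to about 0.2 units.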

For a further series, the system named is Factor VII. Description: Factor VII activity assay, in vivo liver delivery of FVII siRNA LNP. Set-up: species or system mouse. Particulars: ~48 h. An outline of the steps: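 Female CD-1 mice (~25 g) given a single i.v. tail-vein dose of FVII siRNA in LNPs (cationic, stealth, neutral lipids), dosed as mg siRNA/kg. Plasma collected ~48 h post-injection; FVII activity read against a standard curve from pooled vehicle-control plasma.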

Series [2] can be described thus: Particle size and PDI by dynamic light scattering (Malvern Zetasizer). It counts as physicochemical. Summed up: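 Nanoparticles diluted in PBS to a count rate of about 200-400 kcts and measured by dynamic light scattering; size given as intensity-weighted average diameter, with polydispersity index from the same measurement.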
[3] abbreviates: dose 3 mg/kg siRNA i.v., lipid/DSPC/CHOL/AVANTI 880150P 50/28/18/4, N/P 3.43.
[4] abbreviates: dose 3 mg/kg siRNA i.v., lipid/no neutral lipid/CHOL/AVANTI 880150P 50/0/46/4, N/P 3.43.
The mark [5] stands for this setting: lipid/DSPC/CHOL/AVANTI 880150P 50/28/18/4, N/P 3.43.
Setting [6] is: lipid/no neutral lipid/CHOL/AVANTI 880150P 50/0/46/4, N/P 3.43.
Setting [7] is: dose 1 mg/kg siRNA i.v., lipid/DSPC/CHOL/AVANTI 880150P 50/28/18/4, N/P 3.43.
[8] abbreviates: dose 1 mg/kg siRNA i.v., lipid/no neutral lipid/CHOL/GM-020 NOF 60/0/36/4, N/P 3.
Where [9] appears, read: lipid/no neutral lipid/CHOL/GM-020 NOF 60/0/36/4, N/P 3.

One may read the pKa as the negative logarithm of the acid dissociation constant. Lower therefore signals a group that gives up its proton readily.

Turning to `CCCCC/C=C\C/C=C\CCCCCCCCOC[C@H](CN1CCCCC1)OCCOCCO[C@H]1CC[C@@]2(C)C(=CCC3C2CC[C@@]2(C)C3CC[C@@H]2[C@H](C)CCCC(C)C)C1` (stereo partly drawn) [E0043], the pKa in series [1] turned out to be 6.33. Also, the FVII inhib % in the series on Factor VII (setting [3]) is reported as 95.7%; with Factor VII (setting [4]), −11.7%. The “Final size (nm)” value in series [2] (setting [5]) is reported as 110 nm; in series [2] (setting [6]) it was 76 nm. The PDI in series [2] (setting [5]) amounted to 0.24; in series [2] (setting [6]), 0.15.
Regarding `CCCCC/C=C\C/C=C\CCCCCCCCOCC(CN1C(C)CCC1C)OCCOCCO[C@H]1CC[C@@]2(C)C(=CCC3C2CC[C@@]2(C)C3CC[C@@H]2[C@H](C)CCCC(C)C)C1` (stereo partly drawn) [E0046], the pKa in series [1] was 5.75. Besides, the FVII inhib % with Factor VII (setting [4]) was 12.7%. Moreover, in series [2] (setting [6]), the “Final size (nm)” value is recorded as 194 nm and the PDI was 0.116.
In the same order, the values of `CCCCC/C=C\C/C=C\CCCCCCCCOCC(CN1CCCCC1)OC(=O)COCC(=O)O[C@H]1CC[C@@]2(C)C(=CCC3C2CC[C@@]2(C)C3CC[C@@H]2[C@H](C)CCCC(C)C)C1` (stereo partly drawn) [E0047] are 5.55, −3.4%, 112 nm and 0.061.
For `CCCCC/C=C\C/C=C\CCCCCCCCOCC(CN1CCC[C@@H]1C)OCCOCCO[C@H]1CC[C@@]2(C)C(=CCC3C2CC[C@@]2(C)C3CC[C@@H]2[C@H](C)CCCC(C)C)C1` (stereo partly drawn) [E0048] the same measures were 6.56, 88.5%, 225 nm and 0.115.
In the same order, the values of `CCCCC/C=C\C/C=C\CCCCCCCCOCC(CN1CCC[C@H]1C)OCCOCCO[C@H]1CC[C@@]2(C)C(=CCC3C2CC[C@@]2(C)C3CC[C@@H]2[C@H](C)CCCC(C)C)C1` (stereo partly drawn) [E0049] are 6.85, 78.8%, 237 nm and 0.09.
As to `CCCCC/C=C\C/C=C\CCCCCCCCOCC(CN1CCCC1c1ccccc1)OCCOCCO[C@H]1CC[C@@]2(C)C(=CC[C@H]3[C@@H]4CC[C@H]([C@H](C)CCCC(C)C)[C@@]4(C)CC[C@@H]32)C1` (stereo partly drawn) [E0050], the pKa in series [1] was found to be 4.9. Besides, the FVII inhib % in the series with Factor VII (setting [3]) is listed as −7.2%; with Factor VII (setting [4]), −10.4%. For the same compound, the “Final size (nm)” value in series [2] (setting [5]) is 100 nm; in series [2] (setting [6]), 103 nm. Moreover, the PDI is 0.21 in series [2] (setting [5]) and 0.097 in series [2] (setting [6]).
`CCCCC/C=C\C/C=C\CCCCCCCCOC[C@@H](CN1CCC[C@H]1C)OCCOCCO[C@H]1CC[C@@]2(C)C(=CCC3C2CC[C@@]2(C)C3CC[C@@H]2[C@H](C)CCCC(C)C)C1` (stereo partly drawn) [E0052]: in series [1], the pKa came to 6.95. Also, the FVII inhib % turned out to be 69.8% with Factor VII (setting [7]) and 98.1% with Factor VII (setting [3]). In series [2] (setting [5]), the “Final size (nm)” value came to 100.4 nm. In series [2] (setting [5]), this compound showed a PDI of 0.185.
`CCCCC/C=C\C/C=C\CCCCCCCCOCC(CN1CCCCC1)OCCOCCNC(=O)O[C@H]1CC[C@@]2(C)C(=CCC3C2CC[C@@]2(C)C3CC[C@@H]2[C@H](C)CCCC(C)C)C1` (stereo partly drawn) [E0054] yielded a pKa in series [1] of 6.58. Moreover, the FVII inhib % came to 57.5% with Factor VII (setting [7]); 63% in the series on Factor VII (dose 1 mg/kg siRNA i.v., lipid/no neutral lipid/CHOL/AVANTI 880150P 50/0/46/4, N/P 3.43); 97.8% with Factor VII (setting [3]); 98.9% with Factor VII (setting [4]). For the same compound, the “Final size (nm)” value in series [2] (setting [5]) is given as 103 nm; in series [2] (setting [6]), 96 nm. Besides, the PDI was 0.2 in series [2] (setting [5]) and 0.13 in series [2] (setting [6]).
On to `CCCCC/C=C\C/C=C\CCCCCCCCOCC(CN1CCCCC1)OCCOCCOC(=O)CCC(=O)O[C@H]1CC[C@@]2(C)C(=CCC3C2CC[C@@]2(C)C3CC[C@@H]2[C@H](C)CCCC(C)C)C1` (stereo partly drawn) [E0060], for which, in series [1], the pKa is 6.43. Also, the FVII inhib % with Factor VII (setting [8]) amounted to 0.0%. In addition, in series [2] (setting [9]), the “Final size (nm)” value was 90.25 nm and the PDI worked out at 0.171.
For `CCCCCCCC/C=C\CCCCCCCCOCC(CN1CCC(OC)C1)OCCO[C@H]1CC[C@@]2(C)C(=CC[C@H]3[C@@H]4CC[C@H]([C@H](C)CCCC(C)C)[C@@]4(C)CC[C@@H]32)C1` (stereo partly drawn) [E0062] the same measures were 6.45, 64.8%, 145.1 nm and 0.125.
In the same order, the values of `CCCCCCCC/C=C\CCCCCCCCOCC(CN1CCCCC1)OCCOCCO[C@H]1CC[C@@]2(C)C(=CC[C@H]3[C@@H]4CC[C@H]([C@H](C)CCCC(C)C)[C@@]4(C)CC[C@@H]32)C1` (stereo partly drawn) [E0063] are 6.48, 33.3%, 155.5 nm and 0.09.
In the same order, the values of `CCCCCCCC/C=C\CCCCCCCCOCC(CN1CCC(OC)C1)OCCOCCO[C@H]1CC[C@@]2(C)C(=CC[C@H]3[C@@H]4CC[C@H]([C@H](C)CCCC(C)C)[C@@]4(C)CC[C@@H]32)C1` (stereo partly drawn) [E0064] are 6.83, 37.2%, 169.2 nm and 0.144.
Turning to `CCCCCCCC/C=C\CCCCCCCCOCC(CN1CCCC1C)OCCOCCO[C@H]1CC[C@@]2(C)C(=CC[C@H]3[C@@H]4CC[C@H]([C@H](C)CCCC(C)C)[C@@]4(C)CC[C@@H]32)C1` (stereo partly drawn) [E0065], in series [1], the pKa was found to be 6.8. Besides, the FVII inhib % in the series on Factor VII (setting [8]) turned out to be 41.1%. In series [2] (setting [9]), the “Final size (nm)” value came to 153.01 nm and the PDI was 0.148.
In the same order, the values of `CCCCCCCC/C=C\CCCCCCCCOCC(CN1CCCC1C)OCCO[C@H]1CC[C@@]2(C)C(=CC[C@H]3[C@@H]4CC[C@H]([C@H](C)CCCC(C)C)[C@@]4(C)CC[C@@H]32)C1` (stereo partly drawn) [E0066] are 6.5, 44.2%, 140.7 nm and 0.071.
On to `CCCCC/C=C\C/C=C\CCCCCCCCCCOCC(CN1CCOCC1)OCCO[C@H]1CC[C@@]2(C)C(=CC[C@H]3[C@@H]4CC[C@H]([C@H](C)CCCC(C)C)[C@@]4(C)CC[C@@H]32)C1` (stereo partly drawn) [E0068], for which the pKa in series [1] worked out at 4.82. For the same compound, the FVII inhib % in the series with Factor VII (setting [8]) is on record as 28.6%. For the same compound, in series [2] (setting [9]), the “Final size (nm)” value came out at 174.0 nm and the PDI turned out to be 0.041.
For `CCCCC/C=C\C/C=C\CCCCCCCCCCOCC(CN1CCCCC1)OCCO[C@H]1CC[C@@]2(C)C(=CC[C@H]3[C@@H]4CC[C@H]([C@H](C)CCCC(C)C)[C@@]4(C)CC[C@@H]32)C1` (stereo partly drawn) [E0069] the same measures were 6.07, 29%, 113.4 nm and 0.199.
In the same order, the values of `CCCCC/C=C\C/C=C\CCCCCCCCCCOCC(CN1CCCC1C)OCCO[C@H]1CC[C@@]2(C)C(=CC[C@H]3[C@@H]4CC[C@H]([C@H](C)CCCC(C)C)[C@@]4(C)CC[C@@H]32)C1` (stereo partly drawn) [E0070] are 6.4, 50.3%, 150.9 nm and 0.045.
In turn, `CCCCC/C=C\C/C=C\CCCCCCCCCCOCC(CN1CCCCC1)OCCOCCO[C@H]1CC[C@@]2(C)C(=CC[C@H]3[C@@H]4CC[C@H]([C@H](C)CCCC(C)C)[C@@]4(C)CC[C@@H]32)C1` (stereo partly drawn) [E0071] yielded a pKa in series [1] of 6.47. Further, the FVII inhib % in the series on Factor VII (setting [8]) came out at 30.8%. Besides, in series [2] (setting [9]), the “Final size (nm)” value stood at 188.2 nm and the PDI is on record as 0.151.
In the same order, the values of `CCCCCCCC/C=C\CCCCCCCCOCC(CN1CCCCC1)OCCCOCCCO[C@H]1CC[C@@]2(C)C(=CC[C@H]3[C@@H]4CC[C@H]([C@H](C)CCCC(C)C)[C@@]4(C)CC[C@@H]32)C1` (stereo partly drawn) [E0078] are 5.72, 51.9%, 122.6 nm and 0.098.
In the same order, the values of `CCCCC/C=C\C/C=C\CCCCCCCCOCC(CN1CCCCC1)OCCOCCOCCOCCO[C@H]1CC[C@@]2(C)C(=CC[C@H]3[C@@H]4CC[C@H]([C@H](C)CCCC(C)C)[C@@]4(C)CC[C@@H]32)C1` (stereo partly drawn) [E0079] are 6.79, 33.5%, 106.2 nm and 0.052.
In the same order, the values of `CCCCC/C=C\C/C=C\CCCCCCCCOCC(CN1CCCC1C)OCCOCCOCCO[C@H]1CC[C@@]2(C)C(=CC[C@H]3[C@@H]4CC[C@H]([C@H](C)CCCC(C)C)[C@@]4(C)CC[C@@H]32)C1` (stereo partly drawn) [E0082] are 6.81, 49.7%, 105.1 nm and 0.303.

Source of the values: patent publication US9301923B2, “Lipids, lipid compositions, and methods of using them” (NOVARTIS AG, priority 2009, dated 2016).
